Values of other authors as cited in patent US5874104A, “Treatment of systemic fungal infections with phospholipid particles encapsulating polyene antibiotics” (NeXstar Pharmaceuticals, Inc., priority 1995, dated 1999).

What was measured:
renal tubules = settings: mammals
[1] = saline as suspending solution; Jurgens et al.
patients = settings: for Toxicity to cells of the patient: human, in vivo
host = settings: in vivo

Row | Compound | Toxicity for membrane systems (renal tubules) | Precipitation in saline [1] | Clinical toxicity (patients; at therapeutic dose levels) | Toxicity to cells of the patient (patients) | Host toxicity of liposomal drug (host)
1 | C[C@@H]1[C@H](O)[C@@H](C)/C=C/C=C/C=C/C=C/C=C/C=C/C=C/[C@H](O[C@@H]2O[C@H](C)[C@@H](O)[C@H](N)[C@@H]2O)C[C@@H]2O[C@](O)(C[C@@H](O)C[C@@H](O)[C@H](O)CC[C@@H](O)C[C@@H](O)CC(=O)O[C@H]1C)C[C@H](O)[C@H]2C(=O)O [amphotericin B] | greater for certain membrane systems, such as the renal tubules | precipitation | acute hemolytic crisis and eventual kidney failure | acute and chronic toxicity | –
2 | C[C@@H]1[C@H](O)[C@@H](C)/C=C/C=C/CC/C=C/C=C/C=C/C=C/C(O[C@H]2O[C@H](C)[C@@H](O)[C@H](N)[C@@H]2O)CC2O[C@](O)(CC(O)C(O)CCC(O)CC(O)CC(O)CC(=O)O[C@H]1C)CC(O)C2C(=O)O (stereo partly drawn) [nystatin] | – | – | – | acute and chronic toxicity | –
3 | liposomal Amphotericin B | – | – | – | – | decreased host toxicity
